Experimental data published in paper PMC9516332 (Frontiers in Oncology, 2022).

Columns and labels:
Assay in all cases: Kinase panel profiling at 1 µmol/L (MSA or IMAP), percentage inhibition
Type in all cases: biochemical
[1] = target: T1, panel of 255 wild-type kinases (Homo sapiens, UniProt P21709); conditions: kinase EPHA1; 1 µmol/L single concentration; read-out: %-inhibition at 1 µmol/L, EPHA1
T1 sequence (P21709 26-976): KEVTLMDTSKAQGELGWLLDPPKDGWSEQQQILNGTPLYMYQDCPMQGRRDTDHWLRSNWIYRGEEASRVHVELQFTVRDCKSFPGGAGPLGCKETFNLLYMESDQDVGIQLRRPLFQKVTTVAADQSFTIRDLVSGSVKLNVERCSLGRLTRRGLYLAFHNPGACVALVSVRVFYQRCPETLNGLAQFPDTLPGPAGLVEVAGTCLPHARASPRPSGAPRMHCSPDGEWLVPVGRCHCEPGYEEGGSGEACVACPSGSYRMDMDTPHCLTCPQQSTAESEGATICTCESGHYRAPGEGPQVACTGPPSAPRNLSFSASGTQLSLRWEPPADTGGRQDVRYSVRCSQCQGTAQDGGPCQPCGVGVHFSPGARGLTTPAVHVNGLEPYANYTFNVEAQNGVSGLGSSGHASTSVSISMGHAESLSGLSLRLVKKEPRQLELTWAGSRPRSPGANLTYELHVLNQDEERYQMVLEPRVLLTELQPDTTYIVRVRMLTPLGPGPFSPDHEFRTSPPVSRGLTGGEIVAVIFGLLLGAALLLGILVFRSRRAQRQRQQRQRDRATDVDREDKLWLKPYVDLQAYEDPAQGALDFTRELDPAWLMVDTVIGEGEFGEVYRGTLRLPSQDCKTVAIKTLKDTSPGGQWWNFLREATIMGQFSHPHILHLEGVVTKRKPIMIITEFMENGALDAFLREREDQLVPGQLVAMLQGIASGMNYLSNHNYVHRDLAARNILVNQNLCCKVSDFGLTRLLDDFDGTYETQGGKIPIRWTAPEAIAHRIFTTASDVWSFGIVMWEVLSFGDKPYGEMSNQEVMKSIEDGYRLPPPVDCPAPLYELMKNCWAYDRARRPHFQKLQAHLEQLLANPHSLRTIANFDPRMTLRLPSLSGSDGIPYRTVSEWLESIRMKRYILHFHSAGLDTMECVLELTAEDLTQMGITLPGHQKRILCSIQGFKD

[2] = target: T2, panel of 255 wild-type kinases (Homo sapiens, UniProt Q9HBY8); conditions: kinase SGK2; 1 µmol/L single concentration; read-out: %-inhibition at 1 µmol/L, SGK2
T2 sequence (Q9HBY8 1-367): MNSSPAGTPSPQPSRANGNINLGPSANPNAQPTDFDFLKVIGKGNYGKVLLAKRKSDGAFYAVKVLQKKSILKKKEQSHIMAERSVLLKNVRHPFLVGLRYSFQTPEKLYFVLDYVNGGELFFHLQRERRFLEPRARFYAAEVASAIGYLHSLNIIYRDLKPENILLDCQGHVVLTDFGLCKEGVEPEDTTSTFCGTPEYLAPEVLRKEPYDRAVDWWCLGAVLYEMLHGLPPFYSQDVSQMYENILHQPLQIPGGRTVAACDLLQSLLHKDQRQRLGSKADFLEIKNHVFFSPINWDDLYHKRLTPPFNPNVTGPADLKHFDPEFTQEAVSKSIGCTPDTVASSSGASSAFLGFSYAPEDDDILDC

[3] = target: panel of 255 wild-type kinases (Homo sapiens, UniProt P54764); conditions: kinase EPHA4; 1 µmol/L single concentration; read-out: %-inhibition at 1 µmol/L, EPHA4
[4] = target: panel of 255 wild-type kinases (Homo sapiens, UniProt P45983); conditions: kinase JNK1; 1 µmol/L single concentration; read-out: %-inhibition at 1 µmol/L, JNK1
[5] = target: panel of 255 wild-type kinases (Homo sapiens, UniProt P42684); conditions: ARG kinase assay; 1 µmol/L single concentration; read-out: %-inhibition ARG
[6] = target: panel of 255 wild-type kinases (Homo sapiens, UniProt Q15418); conditions: kinase RSK1; 1 µmol/L single concentration; read-out: %-inhibition at 1 µmol/L, RSK1
[7] = target: T3, panel of 255 wild-type kinases (Homo sapiens, UniProt P29320); conditions: kinase EPHA3; 1 µmol/L single concentration; read-out: %-inhibition at 1 µmol/L, EPHA3
T3 sequence (P29320 21-983): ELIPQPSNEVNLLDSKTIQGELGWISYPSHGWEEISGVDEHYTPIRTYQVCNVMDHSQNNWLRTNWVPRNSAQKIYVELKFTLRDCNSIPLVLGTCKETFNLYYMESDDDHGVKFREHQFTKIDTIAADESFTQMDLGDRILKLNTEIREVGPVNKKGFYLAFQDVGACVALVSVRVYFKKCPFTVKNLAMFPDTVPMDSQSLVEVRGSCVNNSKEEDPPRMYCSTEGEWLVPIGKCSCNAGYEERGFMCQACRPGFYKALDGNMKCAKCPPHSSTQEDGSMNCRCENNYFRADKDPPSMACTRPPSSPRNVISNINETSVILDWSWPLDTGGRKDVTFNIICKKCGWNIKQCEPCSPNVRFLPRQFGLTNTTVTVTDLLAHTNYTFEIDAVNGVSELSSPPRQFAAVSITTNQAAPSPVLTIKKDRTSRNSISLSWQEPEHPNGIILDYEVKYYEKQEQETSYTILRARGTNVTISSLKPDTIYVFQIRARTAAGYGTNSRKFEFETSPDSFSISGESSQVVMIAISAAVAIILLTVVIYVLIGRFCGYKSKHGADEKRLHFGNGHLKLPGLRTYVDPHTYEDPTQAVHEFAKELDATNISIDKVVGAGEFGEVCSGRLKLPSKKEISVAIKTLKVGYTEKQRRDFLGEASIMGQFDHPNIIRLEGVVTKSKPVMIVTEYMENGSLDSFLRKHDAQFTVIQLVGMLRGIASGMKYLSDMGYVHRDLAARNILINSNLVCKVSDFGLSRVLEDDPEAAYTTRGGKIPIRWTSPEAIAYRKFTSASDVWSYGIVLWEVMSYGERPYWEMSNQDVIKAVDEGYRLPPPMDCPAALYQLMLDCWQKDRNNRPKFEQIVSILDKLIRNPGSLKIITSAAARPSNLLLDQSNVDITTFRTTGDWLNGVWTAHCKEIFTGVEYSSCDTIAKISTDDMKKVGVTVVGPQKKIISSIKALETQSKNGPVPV

[8] = target: panel of 255 wild-type kinases (Homo sapiens, UniProt P11802); conditions: CDK4/CycD3 kinase assay; 1 µmol/L single concentration; read-out: %-inhibition CDK4/CycD3

SMILES | inhibition at 1 µM [1] [%] | inhibition at 1 µM [2] [%] | inhibition at 1 µM [3] [%] | inhibition at 1 µM [4] [%] | inhibition at 1 µM [5] [%] | inhibition at 1 µM [6] [%] | inhibition at 1 µM [7] [%] | inhibition at 1 µM [8] [%]
C[C@H]1Oc2cc(cnc2N)-c2c(nn(C)c2C#N)CN(C)C(=O)c2ccc(F)cc21 [lorlatinib] | 73 | 4.34 | 25 | -0.746 | 1.49 | 2.31 | 4.35 | -7
CCN1C(=O)N(c2c(F)c(OC)cc(OC)c2F)Cc2cnc3[nH]c(CN4CCOCC4)cc3c21 [pemigatinib] | -4 | 8 | -1.83 | -4.3 | 7 | -1.79 | 0.534 | 9
CO[C@]1(C(=O)N[C@@H](C)c2ccc(-n3cc(F)cn3)nc2)CC[C@H](c2nc(C)cc(Nc3cc(C)[nH]n3)n2)CC1 [pralsetinib] | 66 | 11 | 52 | -5 | 38 | 26 | 32 | -1
C=CC(=O)N1CCC([C@@H]2CCNc3c(C(N)=O)c(-c4ccc(Oc5ccccc5)cc4)nn32)CC1 [zanubrutinib] | -0.68 | -2.33 | -0.204 | -3.49 | -3.68 | -2.79 | -0.0989 | -1.7
Cn1cc(-c2cc3c(N4CCN(c5ncc([C@@](C)(N)c6ccc(F)cc6)cn5)CC4)ncnn3c2)cn1 [avapritinib] | 51 | -4.22 | 35 | -4.54 | 47 | -7 | 22 | 9
